Here are results for five compounds from patent publication US5591735A, “Androstane derivatives substituted by a quaternary ammonium group in 16-position, pharmaceutical compositions containing them and process for preparing same” (Marvishi Pharmaceutical Co., Ltd., priority 1992, dated 1997).

The test system of series [1] is phrenic nerve-hemidiaphragm preparation. As to the kind of experiment: In vitro muscle relaxing effect on the isolated phrenic nerve-hemidiaphragm preparation of rats. Set-up: species or system rat. Particulars: for IC90: read-out: ED90 rat.
Series [2] has the same test system. As to the kind of experiment: In vitro muscle relaxing effect on the isolated phrenic nerve-hemidiaphragm preparation of guinea-pigs. Set-up: species or system guinea-pig. Particulars: for IC90: read-out: ED90 guinea-pig.
The conditions of series [3]: background; cited from earlier work.
For series [4], the system named is anterior tibial muscle (musculus tibialis anterior). As to the kind of experiment: In vivo effect on the anterior tibial muscle of the guinea-pig. Particulars: for time for the 75% neuromuscular block to decrease to 25%: 2×ED90 doses; for ED50 / ED90: Cavia porcellus, iv; for Clinical duration / Onset time: 2 × ED90 dose; for Clinical duration / Recovery 25%-75% / Onset time: guinea-pig, mean ± SEM (n = 4); for Onset time: time required to 95% block.

The subject of the next series is neuromuscular block. Put plainly: Comparison of the effects of 2 × ED90 doses in beagle dog. In kind it is in vivo. Set-up: Tetanic fade: unit not given here. Particulars: mean ± SEM; for Recovery 0-75% / Recovery index / Time to max. recovery: P <0.02; for T4/T1 at max. recovery: P <0.05; for Clinical duration / Onset time / Time to 80% block / ED90 / ED95: n = 8; for Clinical duration / Onset time: P <0.001; for Time to 80% block: P <0.01; for ED90 / ED95: Canis lupus familiaris, beagle dog. From the text:
Comparison of the effects of 2 × ED90 doses in beagle dog (no.
animals in parentheses). Mean ± SEM.

For series [5], the system named is phrenic nerve-hemidiaphragm preparation. Put plainly: Reversal of the in vitro neuromuscular block (wash-out, neostigmine, edrophonium). Set-up: species or system rats and guinea-pigs.
For another series, the system named is vagus nerve. Put plainly: Antivagal effect on anesthetized cat.
The next series has as its system vagus. Particulars: 4×ED90 dose; cited from earlier work.
[6] abbreviates: rat, 0.1 Hz, 0.2 ms, supramaximal stimulus, mean ± SEM (n = 4).

Structures can show the parent of a compound that is named as a salt.

By ED50 is commonly meant the dose that gives a 50% effect, or the effect in half of the subjects. On to `CC(=O)O[C@H]1C[C@@H]2CC[C@@H]3[C@H](CC[C@@]4(C)[C@H]3C[C@H](N3CC[N+](C)(C)CC3)[C@@H]4OC(C)=O)[C@@]2(C)C[C@@H]1N1CC[N+](C)(C)CC1.[Br-].[Br-]` [Pipecuronium bromide, 4,4'-[3α,17β-bis(acetyloxy)-5α-androstane-2β,16β-diyl]bis[1,1-dimethylpiperazinium]dibromide], for which the IC90 in series [1] (setting [6]) amounted to 1500 ± 40 nM. In addition, the IC90 in series [2] (Cavia porcellus, guinea-pig, 0.1 Hz, 0.2 ms, supramaximal stimulus, mean ± SEM (n = 4)) is 80 ± 3 nM. The “cardiovascular side effects / stability” value in series [3] is recorded as “exceed those of pancuronium bromide or vecuronium bromide”. Also, the “time for the 75% neuromuscular block to decrease to 25%” value (“time … to decrease to 25%” for short) in series [4] (guinea-pigs) is 60.6 min. Besides, in series [4], it took a dose of 0.004 ± 0.0007 mg/kg to reach the 50% effect level (ED50), the ED90 stood at 0.006 ± 0.0007 mg/kg, the Clinical duration is 60.6 ± 9.28 min and the “Recovery 25%-75%” value is 24.6 ± 3.71 min. Moreover, the Onset time in series [4] was 1.5 ± 0.08 min.

Turning to `C=CC[N+]1([C@H]2C[C@H]3[C@@H]4CC[C@H]5C[C@H](OC(C)=O)[C@@H](N6CCC7(CC6)OCCO7)C[C@]5(C)[C@H]4CC[C@]3(C)[C@H]2OC(C)=O)CCCC1.[Br-]` [Example 8, 1-[3α,17β-bis(acetyloxy)-2β-(1,4-dioxa-8-azaspiro[4.5]dec-8-yl)-5α-androstan-16β-yl]-1-(2-propenyl)pyrrolidinium bromide], in series [1] (Rattus norvegicus), the IC90 stood at 8370 ± 260 nM. Moreover, in series [1] (rat, in vitro), the “neuromuscular blocking (inhibitory) effect compared with known muscle relaxants” value was “of the similar order of magnitude as that of other known, clinically employed muscle relaxants”. The IC90 in series [2] (Cavia porcellus) amounted to 900 ± 30 nM. For the same compound, in series [2] (guinea-pig, in vitro), the “neuromuscular blocking (inhibitory) effect compared with known muscle relaxants” value is listed as “of the similar order of magnitude as that of other known, clinically employed muscle relaxants”. In addition, in the series with neuromuscular block (2 × ED90, beagle dog, n = 4), the “Recovery 0-75%” value is listed as 16.2 ± 0.9 min, the Recovery index is reported as 3.4 ± 0.4 min, the “Time to max. recovery” value came out at 24.4 ± 2.0 min and the “T4/T1 at max. recovery” value was determined as 91.3 ± 4.8. In the series with neuromuscular block (2 × ED90, beagle dog, n = 4, P n.s. (not significant)), the Tetanic fade was determined as 97.5 ± 1.9. In addition, in the series on neuromuscular block (2 × ED90, beagle dog), the Clinical duration is recorded as 12.6 ± 0.6 min, the Onset time was determined as 75.3 ± 5.9 s and the “Time to 80% block” value worked out at 48.4 ± 2.9 s. In the series on neuromuscular block, this compound came in with an ED90 of 0.0105 ± 0.0002 mg/kg and an ED95 of 0.0111 ± 0.0002 mg/kg. In series [5] (in vitro), the onset of action entry is reported as “rapid” and the reversibility by wash-out entry is “easily reversible by wash-out”. Besides, the “antagonism of the effect” value in series [5] (with neostigmine methyl sulfate or edrophonium chloride) was “could also be antagonized with neostigmine methyl sulfate”. For the same compound, in the series on vagus nerve (8×ED90 dose), the “block of the vagus” value is on record as “did not block the vagus” and the “inhibition of the effects of electrical stimulation of the vagus on heart rate or blood pressure” value is “did not inhibit the effects of electrical stimulation of this nerve on heart rate or blood pressure”. Moreover, in the series with vagus nerve (in vivo cat experiments), the “change in heart rate or blood pressure on electrical stimulation of the vagus” value is recorded as “no significant change in heart rate or blood pressure” and the “effect on the vagus” value is recorded as “no stimulating effect on the vagus”. Also, the “Decrease in heart rate” value in the series with vagus nerve (vagal stimulation, anesthetized cat, mean ± SEM (n = 4), control 14 ± 1.8) is on record as 15 ± 2.9%. Besides, in the series on vagus nerve (vagal stimulation, anesthetized cat, mean ± SEM (n = 4), control 40.0 ± 8.1), the “Decrease in blood pressure” value is 32.0 ± 6.6 Hgmm. For the same compound, the “time … to decrease to 25%” value in series [4] (guinea-pigs) is recorded as 10.1 min. Besides, in series [4], the 50% effective dose (ED50) is 0.034 ± 0.002 mg/kg, the ED90 turned out to be 0.048 ± 0.0027 mg/kg, the Clinical duration came to 10.1 ± 1.32 min and the “Recovery 25%-75%” value came to 2.4 ± 0.3 min. The compound also registered an Onset time in series [4] of 0.9 ± 0.18 min. Moreover, in series [4] (guinea-pigs, in vivo), the “duration of action compared with reference substances” value is reported as “shorter than those of other reference substances with similar chemical structure” and the “onset of action compared with reference substances” value is “more rapid”.

In the case of “7',12dihydroxy-6,6dimethoxy-2,2',2trimethyltubocuraranium chloride hydrochloride [Tubocurarine chloride]”, the IC90 in series [1] (setting [6]) turned out to be 1020 ± 10 nM; in series [2] (guinea-pig, 0.1 Hz, 0.2 ms, supramaximal stimulus, mean ± SEM (n = 4)), 1330 ± 90 nM.

`CC(=O)O[C@H]1C[C@@H]2CC[C@@H]3[C@H](CC[C@@]4(C)[C@H]3C[C@H]([N+]3(C)CCCCC3)[C@@H]4OC(C)=O)[C@@]2(C)C[C@@H]1[N+]1(C)CCCCC1` [Pancuronium bromide, 1'-[3α,17β-bis(acetyloxy)-5α-androstane-2β,16β-diyl]bis[1-methylpiperidinium]dibromide]: in series [1] (Rattus norvegicus), the IC90 is 6360 ± 30 nM. Moreover, in series [2] (Cavia porcellus), the IC90 came out at 290 ± 10 nM. Moreover, in the series with vagus, the “inhibition of the decrease of blood pressure caused by vagal stimulation” value is 50% and the “inhibition of the decrease of heart rate caused by vagal stimulation” value is listed as 50%. In series [4] (guinea-pigs), the “time … to decrease to 25%” value came out at 45.6 min. Also, in series [4], it took a dose of 0.01 ± 0.0011 mg/kg to reach the 50% effect level (ED50), the ED90 was 0.015 ± 0.0019 mg/kg, the Clinical duration is given as 45.6 ± 5.68 min and the “Recovery 25%-75%” value worked out at 14.8 ± 2.45 min. For the same compound, in series [4], the Onset time is listed as 1.1 ± 0.31 min.

As for `CC(=O)O[C@H]1C[C@@H]2CC[C@@H]3[C@H](CC[C@@]4(C)[C@H]3C[C@H]([N+]3(C)CCCCC3)[C@@H]4OC(C)=O)[C@@]2(C)C[C@@H]1N1CCCCC1` [Vecuronium bromide, 1-[3α,17β-bis(acetyloxy)-2β-(1-piperidinyl)androstan-16β-yl]1-methylpiperidinium bromide hydrochloride], in series [1] (Rattus norvegicus), the IC90 stood at 8720 ± 380 nM. Moreover, the IC90 in series [2] (Cavia porcellus) worked out at 250 ± 10 nM. Besides, in the series on neuromuscular block (2 × ED90, beagle dog, n = 4), the “Recovery 0-75%” value is recorded as 24.9 ± 3.0 min, the Recovery index came to 6.6 ± 1.1 min, the “Time to max. recovery” value came out at 31.4 ± 4.3 min and the “T4/T1 at max. recovery” value amounted to 71.0 ± 2.9. In the series on neuromuscular block (2 × ED90, beagle dog), the Clinical duration amounted to 17.8 ± 1.1 min, the Onset time turned out to be 115.1 ± 8.6 s and the “Time to 80% block” value came to 62.8 ± 4.5 s. For the same compound, in the series with neuromuscular block, the ED90 amounted to 0.0358 ± 0.0009 mg/kg and the ED95 was determined as 0.0379 ± 0.001 mg/kg. In addition, the “cardiovascular side effects / stability” value in series [3] was “lack of cardiovascular side effects”. In series [4], the median effective dose (ED50) came out at 0.007 ± 0.0019 mg/kg, the ED90 was found to be 0.011 ± 0.002 mg/kg, the Clinical duration amounted to 26.6 ± 4.61 min and the “Recovery 25%-75%” value stood at 9.0 ± 2.35 min. Also, the Onset time in series [4] turned out to be 1.3 ± 0.51 min.
